Test results: patent US20120101100A1 (priority 2008, published 2012)
Values after ≈ are worked out from the molar mass of the structure shown.

Assays:
[1] = system: Streptococcus pneumoniae; assay: Bacterial susceptibility testing in liquid media (MIC); format: cell-based; settings: against Streptococcus pneumoniae; lowest concentration reducing growth by 80% or more; 37° C., 24 hrs
Description: Compounds were tested for antimicrobial activity by susceptibility testing in liquid media. Compounds were dissolved in dimethylsulfoxide and tested in 10 doubling dilutions in the susceptibility assays. The organisms used in the assay were grown overnight on suitable agar media and then suspended in a liquid medium appropriate for the growth of the organism. The suspension was a 0.5 McFarland and a further 1 in 10 dilution was made into the same liquid medium to prepare the final organism suspension in 100 μL. Plates were incubated under appropriate conditions at 37° C. for 24 hrs prior to reading. The Minimum Inhibitory Concentration was determined as the lowest drug concentration able to reduce growth by 80% or more.

[2] = molecular target: S. aureus GyrB ATPase (Staphylococcus aureus, UniProt P0A0K8); assay: S. aureus (SAU) GyrB ATPase inhibition, malachite green phosphate detection (E. coli GyrA + S. aureus GyrB); format: biochemical; settings: for inhibition at 1 µM: compound concentration of 1.0 μM unless otherwise noted, average value where assay was carried out more than once, read-out: S. aureus (SAU) GyrB ATPase % Inhibition
In short: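 E. coli GyrA and S. aureus GyrB (1.25 nM each) with 500 μM ATP and 5 μg/ml sheared salmon sperm DNA in 50 mM Hepes pH 7.5, 8.0 mM MgCl2. Released phosphate detected with ammonium molybdate/malachite green at 650 nm; 2% DMSO as 0% and 2 μM novobiocin as 100% inhibition; IC50 from 10 concentrations.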

Sequence of S. aureus GyrB ATPase (P0A0K8 whole entry): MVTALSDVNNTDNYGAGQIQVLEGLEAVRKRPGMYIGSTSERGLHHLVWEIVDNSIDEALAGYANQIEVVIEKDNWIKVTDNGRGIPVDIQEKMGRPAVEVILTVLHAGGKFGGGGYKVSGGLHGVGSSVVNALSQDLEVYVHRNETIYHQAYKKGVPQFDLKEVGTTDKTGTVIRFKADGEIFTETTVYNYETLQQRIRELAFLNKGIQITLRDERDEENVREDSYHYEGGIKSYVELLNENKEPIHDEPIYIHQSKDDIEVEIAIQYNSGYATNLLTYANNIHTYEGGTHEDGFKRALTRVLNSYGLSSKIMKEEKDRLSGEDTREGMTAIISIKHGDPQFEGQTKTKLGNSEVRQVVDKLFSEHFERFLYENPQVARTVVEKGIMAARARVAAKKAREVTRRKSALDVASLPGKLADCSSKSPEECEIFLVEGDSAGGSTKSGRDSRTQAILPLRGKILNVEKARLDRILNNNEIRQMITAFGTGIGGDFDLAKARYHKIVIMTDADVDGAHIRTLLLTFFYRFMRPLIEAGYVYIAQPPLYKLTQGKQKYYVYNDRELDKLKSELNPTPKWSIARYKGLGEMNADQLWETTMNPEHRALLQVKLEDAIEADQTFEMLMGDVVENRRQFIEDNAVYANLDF
Sequence of S. aureus GyrB ATPase (P0AES4 whole entry, further chain): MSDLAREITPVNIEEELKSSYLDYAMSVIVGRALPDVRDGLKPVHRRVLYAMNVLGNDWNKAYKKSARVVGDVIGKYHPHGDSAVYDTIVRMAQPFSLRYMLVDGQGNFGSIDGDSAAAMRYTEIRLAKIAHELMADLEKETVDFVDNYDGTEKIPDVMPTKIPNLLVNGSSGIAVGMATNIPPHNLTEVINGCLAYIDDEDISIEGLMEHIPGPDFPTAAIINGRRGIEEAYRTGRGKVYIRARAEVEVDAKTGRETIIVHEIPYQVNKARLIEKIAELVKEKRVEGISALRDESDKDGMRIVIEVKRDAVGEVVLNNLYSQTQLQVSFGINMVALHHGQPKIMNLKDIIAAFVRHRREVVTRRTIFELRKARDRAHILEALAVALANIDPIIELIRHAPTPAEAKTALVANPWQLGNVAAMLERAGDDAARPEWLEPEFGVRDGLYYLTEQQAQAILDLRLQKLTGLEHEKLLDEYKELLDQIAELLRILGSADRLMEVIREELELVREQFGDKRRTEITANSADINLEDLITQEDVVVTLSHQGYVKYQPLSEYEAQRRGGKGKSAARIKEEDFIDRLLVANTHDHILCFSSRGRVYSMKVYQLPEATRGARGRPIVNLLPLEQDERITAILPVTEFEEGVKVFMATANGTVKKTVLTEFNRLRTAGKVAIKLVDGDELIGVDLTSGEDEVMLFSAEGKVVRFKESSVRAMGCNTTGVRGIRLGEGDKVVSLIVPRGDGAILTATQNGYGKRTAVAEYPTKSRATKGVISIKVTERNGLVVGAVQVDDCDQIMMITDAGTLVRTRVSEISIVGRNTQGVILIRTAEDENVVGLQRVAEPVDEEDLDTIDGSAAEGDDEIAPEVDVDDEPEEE

CCNC(=O)Nc1cc(-c2nc(C(F)(F)F)cs2)c(-c2cccnc2)cn1 [Example 14, 1-Ethyl-3-(4-(4-(trifluoromethyl)thiazol-2-yl)-3,3′-bipyridin-6-yl)urea]
MIC [1]: 0.39 µM (≈ 0.153 µg/mL)
IC50 ([2]; 10 compound concentrations, 500 μM ATP): 10 nM
inhibition at 1 µM [2]: 86%

CCNC(=O)Nc1cc(-c2nc(C(F)(F)F)cs2)c(-c2cncc(-c3nnc([C@H](N)C(C)C)o3)c2)cn1 [Example 280, (R)-1-(5′-(5-(1-amino-2-methylpropyl)-1,3,4-oxadiazol-2-yl)-4-(4-(trifluoromethyl)thiazol-2-yl)-3,3′-bipyridin-6-yl)-3-ethylurea]
inhibition at 1 µM [2]: 95%

CCNC(=O)Nc1cc(-c2nc(C(F)(F)F)cs2)c(-c2cncc(-c3nnc(CN)o3)c2)cn1 [Example 281, 1-(5′-(5-(aminomethyl)-1,3,4-oxadiazol-2-yl)-4-(4-(trifluoromethyl)thiazol-2-yl)-3,3′-bipyridin-6-yl)-3-ethylurea]
inhibition at 1 µM [2]: 94%

CCNC(=O)Nc1cc(-c2nc(C(F)(F)F)cs2)c(-c2cncc(C3=NNC(=O)CO3)c2)cn1 [Example 282, 1-ethyl-3-(5′-(5-oxo-5,6-dihydro-4H-1,3,4-oxadiazin-2-yl)-4-(4-(trifluoromethyl)thiazol-2-yl)-3,3′-bipyridin-6-yl)urea]
inhibition at 1 µM [2]: 96%

CCNC(=O)Nc1cc(-c2nc(C(F)(F)F)cs2)c(-c2cncc(-c3nnc(C)n3N)c2)cn1 [Example 283, 1-(5′-(4-amino-5-methyl-4H-1,2,4-triazol-3-yl)-4-(4-(trifluoromethyl)thiazol-2-yl)-3,3′-bipyridin-6-yl)-3-ethylurea]
inhibition at 1 µM [2]: 94%

CCNC(=O)Nc1cc(-c2cn(Cc3ccccc3)nn2)c(-c2cc(-c3n[nH]c(=O)o3)ccn2)cn1 [Example 288]
inhibition at 1 µM [2]: 91%
